Columns and labels:
KG-1 = experiment: cell viability (% survival relative to DMSO control, bortezomib = 0%); higher = less cytotoxic; settings: 72 h
In short: (§1)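 In 384-well plates pre-printed with compounds at 1, 10, 100, 1000 or 10000 nM, duplicate wells received cells from 10 AML and 5 CML lines at densities within the linear growth range. The plates stayed at 37 °C with 5% CO2 for 72 h before CellTiter-Glo luminescence was recorded. Each entry is averaged percent survival. Scaling placed vehicle at 100% and a 10 µM positive control at 0%.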

THP-1 = experiment: as above; settings: 72 h
In short: as §1

SMILES	cell viability (KG-1; 1 nM) [%]	cell viability (KG-1; 10 nM) [%]	cell viability (KG-1; 100 nM) [%]	cell viability (KG-1; 1000 nM) [%]	cell viability (KG-1; 10000 nM) [%]	cell viability (THP-1; 1 nM) [%]	cell viability (THP-1; 10 nM) [%]	cell viability (THP-1; 100 nM) [%]	cell viability (THP-1; 1000 nM) [%]	cell viability (THP-1; 10000 nM) [%]
Nc1ncnc2c1ncn2[C@@H]1O[C@H](CSCC[C@H](N)C(=O)O)[C@@H](O)[C@H]1O [S-Adenosyl Homocysteine]	110	106	98.1	100	102	103	90.8	100	98.9	111
C[C@]12O[C@H](C[C@]1(O)CO)n1c3ccccc3c3c4c(c5c6ccccc6n2c5c31)CNC4=O [Lestaurtinib]	98.3	69.3	28	10.3	6.14	94.4	105	87.2	46	0.505
O=C(O)CCc1ccc(NCc2cccc(Oc3ccccc3)c2)cc1 [GW9508]	90.6	101	96.8	108	107	95.1	101	104	111	111
CC(/C=C1\SC(=S)N(CC(=O)O)C1=O)=C\c1ccccc1 [Epalrestat]	108	101	116	104	111	101	95.6	115	102	103
C[C@H]1O[C@@H](O[C@H]2[C@@H](O)C[C@H](O[C@H]3[C@@H](O)C[C@H](O[C@H]4CC[C@@]5(C)[C@H](CC[C@@H]6[C@@H]5C[C@@H](O)[C@]5(C)[C@@H](C7=CC(=O)OC7)CC[C@]65O)C4)O[C@@H]3C)O[C@@H]2C)C[C@H](O)[C@@H]1O [Digoxin]	92	108	27.9	0.685	-0.0339	85.8	95.6	32.6	0.766	-0.172
OCCN1CCN(CCCN2c3ccccc3Sc3ccc(Cl)cc32)CC1 [Perphenazine]	105	93	97.4	99.7	43.4	95.7	99.2	103	99.1	50.2

Source: the supplement of paper PMC8671470
